Laboratory results from PubChem BioAssay AID2060898 (Molecular Pharmacology Branch, DTP, NCI, 2025).

System: 616215-338-R-J1-PDC complex spheroid viability
Assay: Anticancer human tumor 616215-338-R-J1-PDC patient-derived colon adenocarcinoma cell line growth inhibition [RAS]
Settings: for IC50: curve of first compound; for viability, T/C: stronger effect = lower value
How it was run: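 Tumour cells grown as complex spheroids with HUVEC endothelial cells and mesenchymal stem cells, treated with RAS pathway inhibitor combinations. Each agent spans half-log steps from near clinical Cmax, or 10 microM where Cmax is unknown.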

[1] = second compound 0.000949 µM, first compound 0.000949 µM
[2] = second compound 0.000949 µM, first compound 0.003 µM
[3] = second compound 0.000949 µM, first compound 0.00949 µM
[4] = second compound 0.000949 µM, first compound 0.03 µM
[5] = second compound 0.000949 µM, first compound 0.0949 µM
[6] = second compound 0.000949 µM, first compound 0.3 µM
[7] = second compound 0.003 µM, first compound 0.000949 µM
[8] = second compound 0.003 µM, first compound 0.003 µM
[9] = second compound 0.003 µM, first compound 0.00949 µM
[10] = second compound 0.003 µM, first compound 0.03 µM
[11] = second compound 0.003 µM, first compound 0.0949 µM
[12] = second compound 0.003 µM, first compound 0.3 µM
[13] = second compound 0.00949 µM, first compound 0.000949 µM
[14] = second compound 0.00949 µM, first compound 0.003 µM
[15] = second compound 0.00949 µM, first compound 0.00949 µM
[16] = second compound 0.00949 µM, first compound 0.03 µM
[17] = second compound 0.00949 µM, first compound 0.0949 µM
[18] = second compound 0.00949 µM, first compound 0.3 µM
[19] = second compound 0.03 µM, first compound 0.000949 µM
[20] = second compound 0.03 µM, first compound 0.003 µM
[21] = second compound 0.03 µM, first compound 0.00949 µM
[22] = second compound 0.03 µM, first compound 0.03 µM
[23] = second compound 0.03 µM, first compound 0.0949 µM
[24] = second compound 0.03 µM, first compound 0.3 µM
[25] = second compound 0.0949 µM, first compound 0.000949 µM
[26] = second compound 0.0949 µM, first compound 0.003 µM
[27] = second compound 0.0949 µM, first compound 0.00949 µM
[28] = second compound 0.0949 µM, first compound 0.03 µM
[29] = second compound 0.0949 µM, first compound 0.0949 µM
[30] = second compound 0.0949 µM, first compound 0.3 µM
[31] = second compound 0.3 µM, first compound 0.000949 µM
[32] = second compound 0.3 µM, first compound 0.003 µM
[33] = second compound 0.3 µM, first compound 0.00949 µM
[34] = second compound 0.3 µM, first compound 0.03 µM
[35] = second compound 0.3 µM, first compound 0.0949 µM
[36] = second compound 0.3 µM, first compound 0.3 µM
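Further: spheroids exposed to agents for seven days before viability readout.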
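Wherever viability, T/C is given: 100% = DMSO vehicle control viability.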

## CC1(C)CCC(Nc2ncc(C(F)(F)F)c(-c3c[nH]c4c(P(C)(C)=O)c(C#N)ccc34)n2)CN1 (centres undefined) + CCn1c(-c2cccnc2C(C)OC)c2c3cc(ccc31)N1CCOC(CC(NC(=O)C(C(C)C)N(C)C(=O)C3(F)CCN(C(=O)C#CC(C)(C)N(C)C)CC3)C(=O)N3CCCC(N3)C(=O)OCC(C)(C)C2)C1
Second compound 0.000949 µM
  IC50: 0.0158 µM
Second compound 0.003 µM
  IC50: 0.0153 µM
Second compound 0.00949 µM
  IC50: 0.0139 µM
Second compound 0.03 µM
  IC50: 0.0133 µM
Second compound 0.0949 µM
  IC50: 0.00925 µM
Second compound 0.3 µM
  IC50: 0.00841 µM
[1]
  viability, T/C: 108%
[2]
  viability, T/C: 107%
[3]
  viability, T/C: 62.8%
[4]
  viability, T/C: 34.2%
[5]
  viability, T/C: 33.9%
[6]
  viability, T/C: 31.9%
[7]
  viability, T/C: 107%
[8]
  viability, T/C: 111%
[9]
  viability, T/C: 60.2%
[10]
  viability, T/C: 39.3%
[11]
  viability, T/C: 32.2%
[12]
  viability, T/C: 35.2%
[13]
  viability, T/C: 113%
[14]
  viability, T/C: 103%
[15]
  viability, T/C: 57%
[16]
  viability, T/C: 35.7%
[17]
  viability, T/C: 32.9%
[18]
  viability, T/C: 36.5%
[19]
  viability, T/C: 115%
[20]
  viability, T/C: 117%
[21]
  viability, T/C: 57%
[22]
  viability, T/C: 34.6%
[23]
  viability, T/C: 32.9%
[24]
  viability, T/C: 32.4%
[25]
  viability, T/C: 119%
[26]
  viability, T/C: 93%
[27]
  viability, T/C: 50.3%
[28]
  viability, T/C: 27.6%
[29]
  viability, T/C: 31.2%
[30]
  viability, T/C: 27.1%
[31]
  viability, T/C: 95.1%
[32]
  viability, T/C: 95.3%
[33]
  viability, T/C: 44.8%
[34]
  viability, T/C: 28.8%
[35]
  viability, T/C: 28.4%
[36]
  viability, T/C: 34.6%

## CCc1c2c(nc3ccc(O)cc13)-c1cc3c(c(=O)n1C2)COC(=O)[C@]3(O)CC + CCn1c(-c2cccnc2C(C)OC)c2c3cc(ccc31)N1CCOC(CC(NC(=O)C(C(C)C)N(C)C(=O)C3(F)CCN(C(=O)C#CC(C)(C)N(C)C)CC3)C(=O)N3CCCC(N3)C(=O)OCC(C)(C)C2)C1
Second compound 0.000949 µM
  IC50: 0.0153 µM
Second compound 0.003 µM
  IC50: 0.0138 µM
Second compound 0.00949 µM
  IC50: 0.0142 µM
Second compound 0.03 µM
  IC50: 0.0164 µM
Second compound 0.0949 µM
  IC50: 0.00804 µM
Second compound 0.3 µM
  IC50: 0.00913 µM
[1]
  viability, T/C: 105%
[2]
  viability, T/C: 101%
[3]
  viability, T/C: 56.8%
[4]
  viability, T/C: 39%
[5]
  viability, T/C: 32.6%
[6]
  viability, T/C: 18.1%
[7]
  viability, T/C: 97.9%
[8]
  viability, T/C: 99%
[9]
  viability, T/C: 56%
[10]
  viability, T/C: 35.8%
[11]
  viability, T/C: 30.6%
[12]
  viability, T/C: 16.6%
[13]
  viability, T/C: 107%
[14]
  viability, T/C: 98.4%
[15]
  viability, T/C: 58.1%
[16]
  viability, T/C: 32%
[17]
  viability, T/C: 30.1%
[18]
  viability, T/C: 15.1%
[19]
  viability, T/C: 111%
[20]
  viability, T/C: 110%
[21]
  viability, T/C: 58.7%
[22]
  viability, T/C: 40.9%
[23]
  viability, T/C: 30.8%
[24]
  viability, T/C: 16.4%
[25]
  viability, T/C: 99.9%
[26]
  viability, T/C: 97.6%
[27]
  viability, T/C: 41.9%
[28]
  viability, T/C: 33.4%
[29]
  viability, T/C: 30.2%
[30]
  viability, T/C: 16.6%
[31]
  viability, T/C: 103%
[32]
  viability, T/C: 69%
[33]
  viability, T/C: 48.1%
[34]
  viability, T/C: 37.1%
[35]
  viability, T/C: 26%
[36]
  viability, T/C: 14.3%
